Activity calls are given as the source filed them. The calls are words filed in the database; no cut-off is given here.
Assays:
[1] = system: Caenorhabditis elegans; assay: Protection against thermal stress in Caenorhabditis elegans N2 assessed as increase in mean survival time at 100 uM at 37 degC measured every 1 hr post treatment relative to control; assay type: functional
[2] = system: Caenorhabditis elegans; assay: Protection against thermal stress in Caenorhabditis elegans N2 assessed as increase in mean survival time at 300 uM at 37 degC measured every 1 hr post treatment relative to control; assay type: functional
[3] = system: Caenorhabditis elegans; assay: Protection against thermal stress in Caenorhabditis elegans PS3551 harboring HSF-1 mutant assessed as mean survival time at 37 degC measured every 1 hr up to 8 hrs post treatment (reference value: 4.37 +/- 0.1 hrs); assay type: functional
[4] = system: Caenorhabditis elegans; assay: In vivo activation of HSF-1 pathway in Caenorhabditis elegans N2 assessed as increase in HSP70 protein expression by Western blot analysis relative to control; assay type: functional
[5] = system: Caenorhabditis elegans; assay: Anti-ageing activity in Caenorhabditis elegans N2 assessed as increase in life span at 300 uM relative to control; assay type: functional
[6] = system: Caenorhabditis elegans; assay: Anti-ageing activity in Caenorhabditis elegans N2 assessed as increase in rate of health span on bending in lifespan at 300 uM measured for 3 secs at 3 days time interval up to 16 days relative to control; assay type: functional
[7] = system: Caenorhabditis elegans; assay: Anti-ageing activity in Caenorhabditis elegans N2 assessed as increase in rate of health span on pumping in lifespan at 300 uM measured for 10 secs at 2 days time interval up to 21 days by dissecting microscopic method relative to control; assay type: functional
[8] = system: Caenorhabditis elegans; assay: Anti-ageing activity in Caenorhabditis elegans N2 assessed as increase in rate of health span in maximal lifespan at 300 uM; assay type: functional, organism-based
[9] = system: Caenorhabditis elegans; assay: Anti-ageing activity in Caenorhabditis elegans PS3551 harboring HSF-1 mutant assessed as increase in life span by measuring mean survival time measured up to 20 days post treatment (reference value: 10.89 +/- 0.17 day); assay type: functional
[10] = system: Caenorhabditis elegans; assay: Protection against amyloid beta aggregation-induced paralysis in Caenorhabditis elegans CL4176 harboring temperature-inducible human amyloid beta (3 to 42) transgene assessed as time delay in progression of paralysis at 26 degC after 36 hrs; assay type: functional

Compound: COC(=O)CNC(=O)c1c(O)c2c(c3c1O[C@@]1(C)OC[C@H](C)[C@H]1C3)O[C@@]1(C)OC[C@H](C)[C@H]1C2
- Activity [1]: Active
- Activity [2]: Active

Compound: CCCCN1COc2c3c(c4c(c2C1)O[C@@]1(C)OC[C@H](C)[C@H]1C4)O[C@@]1(C)OC[C@H](C)[C@H]1C3
- Activity [1]: Active

Compound: CNC(=O)c1c(O)c2c(c3c1OC1OCCCC1C3)OC1OCCCC1C2 (stereo not given)
- Activity [1]: Active

Compound: COC(=O)C(Cc1cc2ccccc2[nH]1)NC(=O)c1c(O)c2c(c3c1O[C@@]1(C)OC[C@H](C)[C@H]1C3)O[C@@]1(C)OC[C@H](C)[C@H]1C2 (stereo not given in full)
- Activity [1]: Active

Compound: C[C@H]1CO[C@]2(C)Oc3c(c4c(c5c3C[C@@H]3[C@@H](C)CO[C@]3(C)O5)CN(c3ccccc3)CO4)C[C@H]12
- Activity [1]: inactive

Compound: C[C@H]1CO[C@]2(C)Oc3c(c(O)c(C(=O)O)c4c3C[C@@H]3[C@@H](C)CO[C@]3(C)O4)C[C@H]12
- Activity [1]: Active

Compound: C[C@H]1CO[C@]2(C)Oc3c(c4c(c5c3C[C@@H]3[C@@H](C)CO[C@]3(C)O5)CN(c3ccc(C(=O)O)cc3)CO4)C[C@H]12
- Activity [1]: Active

Compound: C[C@H]1CO[C@]2(C)Oc3c(c4c(c5c3C[C@@H]3[C@@H](C)CO[C@]3(C)O5)CN(c3ccc(Cl)cc3)CO4)C[C@H]12
- Activity [1]: Active

Compound: CCCCSC(=O)c1c(O)c2c(c3c1OC1OCCCC1C3)OC1OCCCC1C2 (stereo not given)
- Activity [1]: Active

Compound: CCCCOc1cc2c(c3c1C[C@@H]1[C@@H](C)CO[C@]1(C)O3)C[C@@H]1[C@@H](C)CO[C@]1(C)O2
- Activity [1]: Active
- Activity [2]: Active

Compound: C[C@H]1CO[C@]2(C)Oc3c(c4c(c5c3C[C@@H]3[C@@H](C)CO[C@]3(C)O5)CN(c3ccc(O)cc3)CO4)C[C@H]12
- MST [3]: 4.32 h
- Activity [1]: 15.38%
- Activity [2]: <=23.96%
- Activity [4]: 28%
- Activity [5]: 11%
- Activity [6]: <=22%
- Activity [7]: 16%
- Activity [8]: Active
- MST [9]: 10.99 days
- Time [10]: 2.8 h

Compound: COC(=O)c1c(O)c2c(c3c1OC1OCCCC1C3)OC1OCCCC1C2 (stereo not given)
- Activity [1]: Active

Compound: COC1(C)CCc2c(cc(O)c3c2OC(C)(OC)CC3)O1 (stereo not given)
- Activity [1]: Active

Compound: C[C@H]1CO[C@]2(C)Oc3c(c4c(c5c3C[C@@H]3[C@@H](C)CO[C@]3(C)O5)CN(CCOCCO)CO4)C[C@H]12
- Activity [1]: Active

Compound: O=c1c(O)c(-c2ccc(O)c(O)c2)oc2cc(O)cc(O)c12 [QUERCETIN]
- Activity [1]: 8.81%

Compound: CC1CC2Cc3c(cc(O)c4c3OC3(C)OC(C)CC3C4)OC2(C)O1 (stereo not given)
- Activity [1]: inactive

Compound: Oc1cc2c(c3c1CC1CCCOC1O3)CC1CCCOC1O2 (stereo not given)
- Activity [1]: Active

Compound: C[C@H]1CO[C@]2(C)Oc3c(c4c(c5c3C[C@@H]3[C@@H](C)CO[C@]3(C)O5)CN(C)CO4)C[C@H]12
- Activity [1]: Active

Compound: COc1ccc(NC(=O)c2c(O)c3c(c4c2O[C@@]2(C)OC[C@H](C)[C@H]2C4)O[C@@]2(C)OC[C@H](C)[C@H]2C3)cc1
- Activity [1]: Active

Compound: C[C@H]1CO[C@]2(C)Oc3c(c4c(c5c3C[C@@H]3[C@@H](C)CO[C@]3(C)O5)CN(c3ccc(I)cc3)CO4)C[C@H]12
- Activity [1]: Active

Compound: C[C@H]1CO[C@]2(C)Oc3cc(O)c4c(c3C[C@H]12)O[C@@]1(C)OC[C@H](C)[C@H]1C4
- Activity [1]: Active
- Activity [2]: Active

Compound: C[C@H]1CO[C@]2(C)Oc3c(c4c(c5c3C[C@@H]3[C@@H](C)CO[C@]3(C)O5)CN(c3ccc([N+](=O)[O-])cc3)CO4)C[C@H]12
- Activity [1]: inactive

Compound: C[C@H]1CO[C@]2(C)Oc3c(c4c(c5c3C[C@@H]3[C@@H](C)CO[C@]3(C)O5)CN(c3ccc(F)cc3)CO4)C[C@H]12
- Activity [1]: Active

Compound: COc1ccc(N2COc3c4c(c5c(c3C2)O[C@@]2(C)OC[C@H](C)[C@H]2C5)O[C@@]2(C)OC[C@H](C)[C@H]2C4)cc1
- Activity [1]: Active

Compound: C[C@H]1CO[C@]2(C)Oc3cc(OC/C=C/c4ccccc4)c4c(c3C[C@H]12)O[C@@]1(C)OC[C@H](C)[C@H]1C4
- Activity [1]: inactive

Compound: COC(=O)C(Cc1ccc(O)cc1)NC(=O)c1c(O)c2c(c3c1O[C@@]1(C)OC[C@H](C)[C@H]1C3)O[C@@]1(C)OC[C@H](C)[C@H]1C2 (stereo not given in full)
- Activity [1]: Active
- Activity [2]: Active

Compound: COC(=O)c1c(O)c2c(c3c1O[C@@]1(C)OC[C@H](C)[C@H]1C3)O[C@@]1(C)OC[C@H](C)[C@H]1C2
- Activity [1]: Active
- Activity [2]: Active

Compound: C[C@H]1CO[C@]2(C)Oc3c(c4c(c5c3C[C@@H]3[C@@H](C)CO[C@]3(C)O5)CN(c3ccc(Br)cc3)CO4)C[C@H]12
- Activity [1]: Active
- Activity [2]: Active

Compound: C[C@H]1CO[C@]2(C)Oc3c(c(O)c(C(=O)NCCc4ccc(O)cc4)c4c3C[C@@H]3[C@@H](C)CO[C@]3(C)O4)C[C@H]12
- Activity [1]: Active

Compound: C[C@H]1CO[C@]2(C)Oc3c(c(O)c(C(=O)Nc4ccc(F)cc4)c4c3C[C@@H]3[C@@H](C)CO[C@]3(C)O4)C[C@H]12
- Activity [1]: Active

Reference: ChEMBL document CHEMBL4145552, “Marine derived xyloketal derivatives exhibit anti-stress and anti-ageing effects through HSF pathway in Caenorhabditis elegans” (2018)
